Test results taken from patent US20090062294A1, “HETEROARYL-SUBSTITUTED UREA MODULATORS OF FATTY ACID AMIDE HYDROLASE” (priority 2007, published 2009).

System: mechanical (tactile) allodynia in the left hind paw
Test: Assay Method 3: Rat Mild Thermal Injury Model (MTI), mechanical allodynia
Assay type: in vivo, Sprague-Dawley rats
Settings: 10 mg/Kg p.o.; 0.5 h after administration; mean +/- S.E.M.
Source text: Assay Method 3—Rat Mild Thermal Injury Model (MTI)
Pathogen-free, male albino Sprague-Dawley rats were purchased from Harlan Industries (San Diego, Calif.) and maintained on a 12-h light/dark cycle (lights on at 9:00 AM and off at 9:00 PM) in a climate-controlled room. Food and water were available ad libitum up to the time of the testing.
Under isoflurane/oxygen anesthesia, a first-degree burn injury (erythema without blistering) was produced as follows: the plantar surface of the rat's left hind paw was placed on water-dampened 56° C. hotplate for 20 seconds and steady contact was maintained by applying an 84 g weight to the dorsum (after Nozaki-Taguchi & Yaksh, Neurosci. Lett. 1998, 254, 25-28).
Mild thermal injury results in mechanical allodynia in the left hind paw. Mechanical (tactile) allodynia was assessed by determining the median threshold at which the affected paw was withdrawn from graded stimuli (von Frey filaments ranging from 0.41 to 15.8 g) applied perpendicularly with sufficient force to bend slightly and held for 2-3 seconds against the proximal half of the third and fourth toe surfaces through wire-mesh observation cages. Paw flinching during or immediately following the removal of the stimulus was considered a positive response. A paw withdrawal threshold (PWT) was determined by sequentially increasing and decreasing the stimulus strength and analyzing withdrawal data using an adaptation of the Dixon up-down method, as described (Chaplan et al., J. Neurosci. 1994, 53, 55-63). Rats were included in the study only if their baseline PWT was 3.1623 g or lower (4.5 logarithmically).
Rats were tested for pre-injury thresholds prior to mild thermal injury and again for baseline thresholds after development of mechanical allodynia. Immediately after baseline measurement, test compound or vehicle was administered orally and the measurement was repeated at 0.5 h after administration. The tactile thresholds (log value) were converted to percent of a maximum possible effect ( %MPE): % MPE=[Threshold(t)−Threshold(baseline)]*100/[Threshold(pre)−Threshold(baseline)], where t=post-treatment time. Data were expressed as mean±standard error of the mean (S.E.M.). Statistical analysis was performed using two-way ANOVA with repeated measures with a significance level of p<0.05.
Results for compounds tested in this assay are presented in Table 2, as an average of results obtained. Compounds were tested in free base, hydrochloride salt, and/or trifluoroacetic acid salt forms.

Compound	% MPE
O=C(Nc1noc2ccccc12)N1CCN(Cc2cccc(Oc3ccc(C(F)(F)F)cc3)c2)CC1 [Example 109, N-1,2-Benzisoxazol-3-yl-4-{3-[4-(trifluoromethyl)phenoxy]benzyl}-piperazine-1-carboxamide]	0%
O=C(Nc1noc2cc(F)ccc12)N1CCN(Cc2cccc(Oc3ccc(Cl)cc3)c2)CC1 [Example 245, 4-[3-(4-Chloro-phenoxy)-benzyl]-piperazine-1-carboxylic acid (6-fluoro-benzo[d]isoxazol-3-yl)-amide]	36 +/− 10%
